Laboratory results reported in patent US20070293553A1, “Diphenylurea Derivatives Useful As Potassium Channel Activators” (priority 2004, published 2007).

Experiments:
[1] = test system: cough reflex in conscious guinea-pigs; assay: Citric acid-induced cough in conscious guinea-pigs; format: in vivo, guinea-pig; conditions: prior exposure to aerosolized test compound (300 μM in nebulizer solution), 10 minutes citric acid aerosol, FIG. 1
Experimental: Exposure of animals for 10 minutes with citric acid aerosol elicited a reproducible cough response.
The cough model is based on guinea-pigs that have been pre-screened to assess their cough response to a 10 minutes exposure of aerosolised 0.35 M citric acid. […] The guinea-pigs are then ranked with regard to their tussive response to citric acid and divided into groups so that the mean number of coughs per group is similar in the vehicle and drug treated groups.
Cough is detected both by pressure change and by sound and recorded using a chart recorder. All animals received Terbutaline (0.05 mg/kg i.p.) 10 minutes prior to challenge with citric acid to alleviate any bronchoconstriction that may occur. These animals were allowed to recover for 1 week. Following this rest period the study was initiated and animals received aerosolised vehicle (1% DMSO) or test compound at 300 μM in 1% DMSO in saline for 20 minutes prior to exposure to citric acid. After dosing, the animals were monitored and exposed to 0.35 M citric acid for 10 minutes, and the number of coughs recorded.
Initially N-(3,5-Dichlorophenyl)-N′-[3-(1H-tetrazol-5-yl)-3′-trifluoromethyl-bi-phenyl-4-yl]-urea (Compound A (3-39)) and N-(3,5-Dichlorophenyl)-N′-[4-bromo-2-(1H-tetrazol-5-yl)phenyl]urea (Compound B) were subjected to this determination, and the results of these determinations are presented in FIG. 1.

Row | melting point | Compound | cough response to citric acid [1]
1 | 236 to 239 °C | O=C(Nc1cc(Cl)cc(Cl)c1)Nc1ccc(-c2cccc(C(F)(F)F)c2)cc1-c1nnn[nH]1 [Compound 3-39, N-(3,5-Dichloro-phenyl)-N′-[3-(1H-tetrazol-5-yl)-3′-trifluoromethyl-biphenyl-4-yl]-urea] | greatly reduced
2 | 203 to 210 °C | O=C(Nc1cccc(Br)c1)Nc1ccc(-c2ccc(C(F)(F)F)cc2)cc1-c1nnn[nH]1 [Compound 3-43, N-(3-Bromo-phenyl)-N′-[3-(1H-tetrazol-5-yl)-4′-trifluoromethyl-biphenyl-4-yl]-urea] | –
3 | 232 to 234 °C | O=C(Nc1ccc(Cl)cc1)Nc1ccc(-c2ccc(C(F)(F)F)cc2)cc1-c1nnn[nH]1 [Compound 3-44, N-(4-Chloro-phenyl)-N′-[3-(1H-tetrazol-5-yl)-4′-trifluoromethyl-biphenyl-4-yl]-urea] | –
4 | 254 to 255 °C | O=C(Nc1ccc(F)c(C(F)(F)F)c1)Nc1ccc(-c2cccc(C(F)(F)F)c2)cc1-c1nnn[nH]1 [Compound 3-45, N-(4-Fluoro-3-trifluoromethyl-phenyl)-N′-[3-(1H-tetrazol-5-yl)-3′-trifluoromethyl-biphenyl-4-yl]-urea] | –
5 | – | O=C(Nc1cc(Cl)cc(Cl)c1)Nc1ccc(Br)cc1-c1nnn[nH]1 [Compound B, N-(3,5-Dichlorophenyl)-N′-[4-bromo-2-(1H-tetrazol-5-yl)phenyl]urea] | greatly reduced
